Source: ChEMBL document CHEMBL6096723, “Discovery of novel capsaicin analogs as TRPV1 inhibitors for the treatment of idiopathic pulmonary fibrosis” (Eur J Med Chem, 2025)
The source made the active and inactive calls. The rule behind the calls is not given here.

How the values were obtained:
[1] = Cytotoxicity against mouse NIH3T3 cells assessed as survival rate at 10 uM measured after 24 hrs by CCK-8 assay relative to control; assay type: toxicity, cell-based; conditions: read-out: Survival
NIH3T3 [2] = experiment: Anti-fibrotic activity in mouse NIH3T3 cells assessed as inhibition of TGFbeta-induced total collagen production at 10 uM measured after 48 hrs by Sirius Red Collagen Detection Kit relative to control; assay type: functional
NIH3T3 [3] = experiment: Inhibition of TGFbeta1-induced proliferation of mouse NIH3T3 cells assessed as colony formation at 10 uM measured after 7 to 14 days by Crystal violet staining based assay; assay type: functional, cell-based; conditions: time 7-14 day
NIH3T3 [4] = experiment: Anti-fibrotic activity in mouse NIH3T3 cells assessed as inhibition of TGFbeta-induced total collagen production measured after 48 hrs by Sirius Red Collagen Detection Kit relative to control; assay type: functional, cell-based; conditions: NIH3T3, 48 h
L929 = experiment: Anti-migratory activity in mouse L929 cells assessed as inhibition of TGFbeta1-induced migration at 10 uM measured after 24 hrs by Wound healing assay; assay type: functional, cell-based

In the case of COc1cc(CCC(O)CC/C=C/c2ccccc2)ccc1O (configuration not stated), the viability at 24 h, 10 µM [1] is reported as 103% and the inhibition at 10 µM (NIH3T3 [2]) is reported as 43.7%.

Compound CCCCCCCCC(=O)NCc1ccc(O)c(OC)c1 [NONIVAMIDE] has a viability at 24 h, 10 µM [1] of 92% and an inhibition at 10 µM (NIH3T3 [2]) of 58.7%.

COc1ccc(CCC(=O)CC/C=C/c2ccccc2)cc1 gave a viability at 24 h, 10 µM [1] of 38.8% and an inhibition at 10 µM (NIH3T3 [2]) of 57.7%.

In the case of COC(/C=C/C=C/c1ccccc1)CCc1ccc(O)cc1 (configuration not stated), the viability at 24 h, 10 µM [1] is reported as 111% and the inhibition at 10 µM (NIH3T3 [2]) is reported as 57.7%.

Work on CCCCCC(=O)NCc1ccc(OC)c(OC)c1 yielded a viability at 24 h, 10 µM [1] of 85.8% and an inhibition at 10 µM (NIH3T3 [2]) of -9.02%.

In the case of COc1cc(/C=C/C(O)CC(=O)/C=C/c2ccc(O)cc2)ccc1O (configuration not stated), the viability at 24 h, 10 µM [1] is reported as 88.9% and the inhibition at 10 µM (NIH3T3 [2]) is reported as -41.6%.

Compound CCCCCCCCC(=O)NCc1ccc(OC(C)=O)c(OC)c1 has a viability at 24 h, 10 µM [1] of 129% and an inhibition at 10 µM (NIH3T3 [2]) of 56.4%.

CC(=O)Oc1ccc(/C=C/C(=O)Cc2ccccc2)cc1OC(C)=O showed a viability at 24 h, 10 µM [1] of 149% and an inhibition at 10 µM (NIH3T3 [2]) of 18.8%.

Compound O=C(CC/C=C/c1ccccc1)CCc1ccccc1 has a viability at 24 h, 10 µM [1] of -1.47% and an inhibition at 10 µM (NIH3T3 [2]) of 55.3%.

With CCCCCCCC(=O)NCc1ccc(O)c(O)c1 the viability at 24 h, 10 µM [1] was 133% and the inhibition at 10 µM (NIH3T3 [2]) was 58.1%.

In the case of COC(=O)c1ccc2c(c1)NC(=O)/C2=C(\Nc1ccc(N(C)C(=O)CN2CCN(C)CC2)cc1)c1ccccc1 [NINTEDANIB], the viability at 24 h, 10 µM [1] is reported as 20.5%, the inhibition (NIH3T3 [3]) is reported as “Active” and the IC50 (NIH3T3 [4]) is reported as 0.27 µM. For the same compound, the inhibition at 10 µM (NIH3T3 [2]) was 89.5%.

Compound O=C(CC/C=C/c1ccccc1)CCc1ccc(O)cc1 has a viability at 24 h, 10 µM [1] of -3.97% and an inhibition at 10 µM (NIH3T3 [2]) of 40.1%.

Compound CCCCCCCCCC(=O)NCc1ccc(OC)c(OC)c1 has a viability at 24 h, 10 µM [1] of 101% and an inhibition at 10 µM (NIH3T3 [2]) of -5.71%.

For COc1ccc(CCCCC(O)CCc2ccc(OC)c(O)c2)c(OC)c1 (configuration not stated), the viability at 24 h, 10 µM [1] was 114%, the IC50 (NIH3T3 [4]) was 21.9 µM and the inhibition at 10 µM (NIH3T3 [2]) was 68.5%.

In the case of OC(CCCCc1ccccc1)CCc1ccccc1 (configuration not stated), the viability at 24 h, 10 µM [1] is reported as 74.1%, the Activity (L929) is reported as “Active” and the IC50 (NIH3T3 [4]) is reported as 1.57 µM. For the same compound, the inhibition at 10 µM (NIH3T3 [2]) was 72.2%.

COc1ccc(CCC(/C=C/C=C/c2ccccc2)OC)cc1O (configuration not stated) showed a viability at 24 h, 10 µM [1] of 93.2% and an inhibition at 10 µM (NIH3T3 [2]) of 63%.

Work on COc1cc(/C=C/C(=O)CC(O)/C=C/c2ccc(O)c(OC)c2)ccc1O (configuration not stated) yielded a viability at 24 h, 10 µM [1] of 85% and an inhibition at 10 µM (NIH3T3 [2]) of 19.4%.

COc1ccc(CNC(=O)CC(C)C)cc1OC gave a viability at 24 h, 10 µM [1] of 88.2% and an inhibition at 10 µM (NIH3T3 [2]) of -41.7%.

In the case of Oc1ccc(/C=C/CCC(O)CCc2ccc(O)cc2)cc1 (configuration not stated), the viability at 24 h, 10 µM [1] is reported as 132% and the inhibition at 10 µM (NIH3T3 [2]) is reported as 60.9%.

CCCCC(=O)NCc1ccc(OC(C)=O)c(OC(C)=O)c1 gave a viability at 24 h, 10 µM [1] of 131% and an inhibition at 10 µM (NIH3T3 [2]) of 53%.

For COc1ccc(CNC(=O)CCCCc2ccccc2)cc1OC, the viability at 24 h, 10 µM [1] was 91.2% and the inhibition at 10 µM (NIH3T3 [2]) was -9.64%.

With CCCCCCCC(=O)NCc1ccc(OC(C)=O)c(OC(C)=O)c1 the viability at 24 h, 10 µM [1] was 151% and the inhibition at 10 µM (NIH3T3 [2]) was 56.3%.

Compound CC(=O)Oc1ccc(CCC(CCCCc2ccccc2)OC(C)=O)cc1OC(C)=O (configuration not stated) has a viability at 24 h, 10 µM [1] of 111% and an inhibition at 10 µM (NIH3T3 [2]) of 51.9%.

Work on CCCCC(=O)NCc1ccc(O)c(O)c1 yielded a viability at 24 h, 10 µM [1] of 123% and an inhibition at 10 µM (NIH3T3 [2]) of 54.2%.

With CC(=O)Oc1ccc(CNC(=O)CC(C)C)cc1OC(C)=O the viability at 24 h, 10 µM [1] was 124% and the inhibition at 10 µM (NIH3T3 [2]) was 11.2%.

CCCCC(=O)NCc1ccc(OC)c(OC)c1 gave a viability at 24 h, 10 µM [1] of 86% and an inhibition at 10 µM (NIH3T3 [2]) of -2.64%.

Compound OC(/C=C/C=C/c1ccccc1)CCc1ccccc1 (configuration not stated) has a viability at 24 h, 10 µM [1] of 119% and an inhibition at 10 µM (NIH3T3 [2]) of 61.9%.

In the case of CCCCCCCCC(=O)NCc1ccc(OC(C)=O)c(OC(C)=O)c1, the viability at 24 h, 10 µM [1] is reported as 137% and the inhibition at 10 µM (NIH3T3 [2]) is reported as 66%.

In the case of COc1ccc(OC)c(CCCCC(=O)CCc2ccc(OC)c(O)c2)c1, the viability at 24 h, 10 µM [1] is reported as 96.8% and the inhibition at 10 µM (NIH3T3 [2]) is reported as 59.2%.

Work on COc1cc(CNC(=O)CCCCCCC(C)C)ccc1O [DIHYDROCAPSAICIN] yielded a viability at 24 h, 10 µM [1] of 92.3%, an IC50 (NIH3T3 [4]) of 20.4 µM and an inhibition at 10 µM (NIH3T3 [2]) of 50%.

In the case of O=C(CCCCc1ccccc1)CCc1ccccc1, the viability at 24 h, 10 µM [1] is reported as 94.1% and the inhibition at 10 µM (NIH3T3 [2]) is reported as 58.8%.

With C(=C\C=C\c1ccccc1)/C=C/Cc1ccccc1 the viability at 24 h, 10 µM [1] was -2.34% and the inhibition at 10 µM (NIH3T3 [2]) was 57.5%.

With OC(CCc1ccccc1)CC(O)CCc1ccccc1 (configuration not stated) the viability at 24 h, 10 µM [1] was 101% and the inhibition at 10 µM (NIH3T3 [2]) was 46.9%.

With COc1ccc(CCC(=O)CCCCc2cccc(O)c2)cc1O the viability at 24 h, 10 µM [1] was 95.7% and the inhibition at 10 µM (NIH3T3 [2]) was 60.6%.

In the case of O=C(/C=C/c1ccc(O)cc1)CC(O)/C=C/c1ccc(O)cc1 (configuration not stated), the viability at 24 h, 10 µM [1] is reported as 101%, the Activity (L929) is reported as “Active” and the IC50 (NIH3T3 [4]) is reported as 4.76 µM. It also gave an inhibition at 10 µM (NIH3T3 [2]) of 72.8%.

With CC(=O)Oc1ccc(CNC(=O)CCCCc2ccccc2)cc1OC(C)=O the viability at 24 h, 10 µM [1] was 129%, the inhibition (NIH3T3 [3]) was “Active” and the IC50 (NIH3T3 [4]) was 1.43 µM. For the same compound, the inhibition at 10 µM (NIH3T3 [2]) was 70.6%.

With CCCCCC(=O)NCc1ccc(OC(C)=O)c(OC(C)=O)c1 the viability at 24 h, 10 µM [1] was 138% and the inhibition at 10 µM (NIH3T3 [2]) was 50.9%.

In the case of O=C(CCCCc1ccccc1)NCc1ccc(O)c(O)c1, the viability at 24 h, 10 µM [1] is reported as 118% and the inhibition at 10 µM (NIH3T3 [2]) is reported as 65.2%.

For COc1ccc(CCC(=O)CCCCc2cccc(O)c2)cc1, the viability at 24 h, 10 µM [1] was 91.1%, the inhibition (NIH3T3 [3]) was “Active” and the IC50 (NIH3T3 [4]) was 2.08 µM. The inhibition at 10 µM (NIH3T3 [2]) was 67.6%.

CCCCCCCCCC(=O)NCc1ccc(O)c(O)c1 gave a viability at 24 h, 10 µM [1] of 121% and an inhibition at 10 µM (NIH3T3 [2]) of 64.8%.

With CCCCCC(=O)NCc1ccc(O)c(O)c1 the viability at 24 h, 10 µM [1] was 118% and the inhibition at 10 µM (NIH3T3 [2]) was 60.2%.

With CCCCCCCCC(=O)NCc1ccc(O)c(O)c1 the viability at 24 h, 10 µM [1] was 90.5% and the inhibition at 10 µM (NIH3T3 [2]) was 61.4%.

For CCCCCCCCCC(=O)NCc1ccc(OC(C)=O)c(OC(C)=O)c1, the viability at 24 h, 10 µM [1] was 141%, the inhibition (NIH3T3 [3]) was “Active” and the IC50 (NIH3T3 [4]) was 2.63 µM. It also gave an inhibition at 10 µM (NIH3T3 [2]) of 68.9%.

In the case of Oc1ccc(CCC(O)CC/C=C/c2ccccc2)cc1O (configuration not stated), the viability at 24 h, 10 µM [1] is reported as 131% and the inhibition at 10 µM (NIH3T3 [2]) is reported as 56.6%.

For CCCCCCCC(=O)NCc1ccc(OC)c(OC)c1, the viability at 24 h, 10 µM [1] was 103% and the inhibition at 10 µM (NIH3T3 [2]) was 11.6%.

Compound O=C(CCc1ccccc1)CC(O)CCc1ccccc1 (configuration not stated) has a viability at 24 h, 10 µM [1] of 111% and an inhibition at 10 µM (NIH3T3 [2]) of 62.9%.

COc1cc(CNC(=O)CCCC/C=C/C(C)C)ccc1O [CAPSAICIN] showed a viability at 24 h, 10 µM [1] of 98.6% and an inhibition at 10 µM (NIH3T3 [2]) of 35.3%.

In the case of CC(C)CC(=O)NCc1ccc(O)c(O)c1, the viability at 24 h, 10 µM [1] is reported as 115% and the inhibition at 10 µM (NIH3T3 [2]) is reported as 10.4%.

Compound O=C(CCCCc1ccccc1)CCc1ccc(O)cc1 has a viability at 24 h, 10 µM [1] of 117% and an inhibition at 10 µM (NIH3T3 [2]) of 49.7%.
